What all share (format): functional
Assay [1] deals with Staphylococcus aureus. The assay can be described thus: Antibacterial activity against Methicillin-sensitive Staphylococcus aureus ATCC 9144 assessed as reduction in bacterial growth.
The test system of assay [2] is Enterococcus faecalis. The assay can be described thus: Antibacterial activity against vancomycin-resistant Enterococcus faecalis NR 31912 assessed as inhibition of bacterial growth.
The subject of assay [3] is Staphylococcus aureus. The assay can be described thus: Antimicrobial activity against […] Staphylococcus aureus ATCC 25923 assessed as reduction in cell growth by microdilution method. Background: Dilution methods test growth across graded concentrations, often in twofold steps.
Assay [4] concerns Mycobacterium tuberculosis. The assay can be described thus: Antitubercular activity against XDR Mycobacterium tuberculosis X24 assessed as bacterial growth inhibition measured for 9 days. The settings on record: X24, 216 h, time 9 day.
In assay [5] the test system is Mycobacterium tuberculosis. The assay can be described thus: Antibacterial activity against Mycobacterium tuberculosis H37Rv assessed as bacterial growth inhibition incubated for 8 days by resazurin assay. The conditions noted are these: 192 h, time 8 day. Background: Resazurin is reduced to fluorescent resorufin, in cell work by metabolically active cells.
The test system of assay [6] is Staphylococcus aureus. The assay can be described thus: Antibacterial activity against methicillin-sensitive Staphylococcus aureus assessed as reduction in bacterial growth incubated for 24 hrs by broth microdilution method.
In assay [7] the test system is Staphylococcus aureus. The assay can be described thus: Antibacterial activity against Methicillin-resistant Staphylococcus aureus ATCC 33592 assessed as reduction in bacterial growth.
The next assay deals with Enterococcus faecium. The assay can be described thus: Antibacterial activity against vancomycin-resistant Enterococcus faecium assessed as reduction in microbial growth CLSI-based double dilution method.
In a further assay the test system is Haemophilus influenzae. The assay can be described thus: Antibacterial activity against Haemophilus influenzae assessed as bacterial growth inhibition.
Assay [8] has as its system Mycobacterium tuberculosis. The assay can be described thus: Antimycobacterial activity against Mycobacterium tuberculosis H37Rv assessed as bacterial growth inhibition incubated for 7 days by fluorescence based analysis. The conditions noted are these: 168 h, time 7 day.
For assay [9], the system named is Enterococcus faecalis. The assay can be described thus: Antibacterial activity against vancomycin-resistant Enterococcus faecalis incubated for 18 hrs by broth microdilution method.
Assay [10] has as its system Staphylococcus aureus. The assay can be described thus: Antimicrobial activity against Methicillin-sensitive Staphylococcus aureus ATCC 29213 assessed as reduction in bacterial growth.
Assay [11] deals with Mycobacterium tuberculosis. The assay can be described thus: Antimycobacterial activity against Mycobacterium tuberculosis H37Rv assessed as reduction in bacterial growth measured for 7 days by resazurin dye based assay. The settings on record: 168 h, time 7 day.
Assay [12] relates to Staphylococcus aureus. The assay can be described thus: Antimicrobial activity against […] Staphylococcus aureus ATCC 25923 assessed as reduction in microbial growth.
The test system of assay [13] is Staphylococcus aureus. The assay can be described thus: Antibacterial activity against Methicillin-resistant Staphylococcus aureus assessed as fold reduction in bacterial growth incubated for 14 to 16 hrs by microbroth dilution method. The settings on record: time 14-16 hrs.

The structures appear in SMILES notation. ≈ marks a conversion by molar mass, not a printed value.

The values that follow come from ChEMBL document CHEMBL5550106, “Recent advances in the exploration of oxazolidinone scaffolds from compound development to antibacterial agents and other bioactivities” (Eur J Med Chem, 2024).

With `CN1CCN(c2ccc(N3C[C@H](CO)OC3=O)cc2F)C=N1` [DELPAZOLID], the MIC90 with Staphylococcus aureus [1] was found to be 1 µg/mL (≈ 3.24 µM); in the assay on Enterococcus faecalis [2], 0.5 µg/mL (≈ 1.62 µM); in the assay on Staphylococcus aureus [3], 1 µg/mL; in [4], 0.5 µg/mL (≈ 1.62 µM).

With `O=C([C@@H](O)CO)N1CC=C(c2c(F)cc(N3C[C@H](COc4ccon4)OC3=O)cc2F)CC1` [POSIZOLID], in [5], the MIC90 turned out to be 1 µg/mL (≈ 2.15 µM).

In the case of `CC(=O)NC[C@H]1CN(c2ccc(-c3ccc(CNCc4cnn[nH]4)cc3)c(F)c2)C(=O)O1` [RADEZOLID], the MIC90 in the assay on Staphylococcus aureus [6] was found to be 0.5 µg/mL (≈ 1.14 µM); in the assay with Staphylococcus aureus [7], 0.5 µg/mL (≈ 1.14 µM); in the assay on Enterococcus faecium, 0.5 µg/mL; in the assay with Haemophilus influenzae, 0.5 µg/mL (≈ 1.14 µM).

What is called MIC is the lowest concentration found to suppress growth. With `CC(=O)NC[C@H]1CN(c2ccc(N3CCSCC3)c(F)c2)C(=O)O1` [SUTEZOLID], the MIC in [8] was determined as 0.03 µg/mL (≈ 0.0849 µM).

As for `Cn1nnc(-c2ccc(-c3ccc(N4C[C@H](COP(=O)(O)O)OC4=O)cc3F)cn2)n1` [TEDIZOLID PHOSPHATE], the MIC90 is 0.12 µg/mL in the assay with Enterococcus faecalis [9], 0.12 µg/mL in the assay on Staphylococcus aureus [10], 0.125 µg/mL in [11] and 0.12 µg/mL in the assay with Staphylococcus aureus [12].

With `Cn1nnc(-c2ccc(-c3ccc(N4C[C@H](CO)OC4=O)cc3F)cn2)n1` [TEDIZOLID], the results for the MIC90 in the assay with Enterococcus faecalis [9], in the assay on Staphylococcus aureus [10] and in the assay on Staphylococcus aureus [12] were 0.5 µg/mL (≈ 1.35 µM), 0.25 µg/mL (≈ 0.675 µM) and 0.25 µg/mL, respectively. The “fold change (FC)” value with Staphylococcus aureus [13] was 4.
